From paper PMC10777983, “The Optimization of Assay Conditions and Characterization of the Succinic Semialdehyde Dehydrogenase Enzyme of Germinated Tartary Buckwheat” (Foods, 2023) come the findings set out here.

This assay deals with T1, SSADH (succinic semialdehyde dehydrogenase) of germinated Tartary buckwheat.
T1 construct: NAD+-dependent (printed EC 1.2.1.79 is the NADP+ class)
Kind of assay: NADH formation at […] nm, Lineweaver-Burk. The conditions noted are these: 1 mmol/L EDTA, 20 mmol/L beta-mercaptoethanol, 1 mmol/L PMSF, partially purified enzyme. In kind it is biochemical, Fagopyrum tataricum.

The term Km denotes the substrate concentration at which the rate is half of its maximum. On to `NC(=O)c1ccc[n+]([C@@H]2O[C@H](COP(=O)(O)OP(=O)(O)OC[C@H]3O[C@@H](n4cnc5c(N)ncnc54)[C@H](O)[C@@H]3O)[C@@H](O)[C@H]2O)c1` [NAD^+], for which the Km (0.2 mmol/L SSA fixed, PBS pH 8.6, 30 °C) was 636 µM. On to `O=CCCC(=O)O` [SSA], for which the Km (2 mmol/L NAD+, 1/15 mol/L PBS pH 8.6 (b78 prints mmol/L), 30 °C) is ~235 µM.
